Laboratory results: ChEMBL document CHEMBL4020810, “Janus-Associated Kinase 1 (JAK1) Inhibitors as Potential Treatment for Immune Disorders” (ACS Med Chem Lett, 2017)

Assays:
[1] = molecular target: T1, Tyrosine-protein kinase JAK1 (Homo sapiens, UniProt P23458); assay: Inhibition of JAK1 in human NCI-H1975 cells assessed as reduction in STAT3 phosphorylation incubated for 2 hrs; format: cell-based
[2] = molecular target: T1, Tyrosine-protein kinase JAK1; assay: Inhibition of N-terminal GST fused human recombinant JAK1 (866 to 1154 amino acids) expressed in insect cells using ATP and peptide substrate (FITC-C6-KKHTDDGYMPMSPGVA-NH2
[3] = molecular target: T2, Tyrosine-protein kinase JAK3 (Homo sapiens, UniProt P52333); assay: Inhibition of N-terminal GST fused recombinant JAK3 (781 to 1124 amino acids) (unknown origin) expressed in insect cells using ATP and peptide substrate (5FAM-GEEPLYWSFPAKKK-NH2
T2 sequence (P52333 whole entry): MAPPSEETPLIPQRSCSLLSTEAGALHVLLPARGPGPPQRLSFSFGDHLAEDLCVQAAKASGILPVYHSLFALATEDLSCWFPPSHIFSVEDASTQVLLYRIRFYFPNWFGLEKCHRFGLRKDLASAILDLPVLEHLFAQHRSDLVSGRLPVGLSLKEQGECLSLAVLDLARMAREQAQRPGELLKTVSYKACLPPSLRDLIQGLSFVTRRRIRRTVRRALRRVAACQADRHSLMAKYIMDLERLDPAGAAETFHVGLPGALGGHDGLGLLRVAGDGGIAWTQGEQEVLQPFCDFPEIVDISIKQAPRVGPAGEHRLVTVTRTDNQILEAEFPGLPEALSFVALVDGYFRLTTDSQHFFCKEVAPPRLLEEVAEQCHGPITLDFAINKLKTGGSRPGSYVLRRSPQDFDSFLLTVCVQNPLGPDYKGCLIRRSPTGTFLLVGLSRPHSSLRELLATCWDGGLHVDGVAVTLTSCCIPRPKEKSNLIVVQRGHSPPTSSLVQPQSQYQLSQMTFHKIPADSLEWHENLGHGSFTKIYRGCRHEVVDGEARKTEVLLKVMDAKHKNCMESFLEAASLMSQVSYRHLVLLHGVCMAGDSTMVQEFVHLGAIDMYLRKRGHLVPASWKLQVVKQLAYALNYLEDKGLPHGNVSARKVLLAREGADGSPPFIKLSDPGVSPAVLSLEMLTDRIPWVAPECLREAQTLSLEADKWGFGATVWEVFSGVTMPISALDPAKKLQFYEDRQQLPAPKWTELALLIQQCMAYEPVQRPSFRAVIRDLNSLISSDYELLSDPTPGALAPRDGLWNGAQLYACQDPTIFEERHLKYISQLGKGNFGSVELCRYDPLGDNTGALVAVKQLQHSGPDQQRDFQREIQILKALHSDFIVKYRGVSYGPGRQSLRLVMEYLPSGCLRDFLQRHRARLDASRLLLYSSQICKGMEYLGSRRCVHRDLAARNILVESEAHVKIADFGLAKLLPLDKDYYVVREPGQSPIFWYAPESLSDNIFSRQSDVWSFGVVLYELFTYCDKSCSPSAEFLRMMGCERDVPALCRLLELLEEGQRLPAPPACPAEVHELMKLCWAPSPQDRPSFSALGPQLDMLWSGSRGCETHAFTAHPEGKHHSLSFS

T1 sequence (P23458 whole entry, the tested form may be a part): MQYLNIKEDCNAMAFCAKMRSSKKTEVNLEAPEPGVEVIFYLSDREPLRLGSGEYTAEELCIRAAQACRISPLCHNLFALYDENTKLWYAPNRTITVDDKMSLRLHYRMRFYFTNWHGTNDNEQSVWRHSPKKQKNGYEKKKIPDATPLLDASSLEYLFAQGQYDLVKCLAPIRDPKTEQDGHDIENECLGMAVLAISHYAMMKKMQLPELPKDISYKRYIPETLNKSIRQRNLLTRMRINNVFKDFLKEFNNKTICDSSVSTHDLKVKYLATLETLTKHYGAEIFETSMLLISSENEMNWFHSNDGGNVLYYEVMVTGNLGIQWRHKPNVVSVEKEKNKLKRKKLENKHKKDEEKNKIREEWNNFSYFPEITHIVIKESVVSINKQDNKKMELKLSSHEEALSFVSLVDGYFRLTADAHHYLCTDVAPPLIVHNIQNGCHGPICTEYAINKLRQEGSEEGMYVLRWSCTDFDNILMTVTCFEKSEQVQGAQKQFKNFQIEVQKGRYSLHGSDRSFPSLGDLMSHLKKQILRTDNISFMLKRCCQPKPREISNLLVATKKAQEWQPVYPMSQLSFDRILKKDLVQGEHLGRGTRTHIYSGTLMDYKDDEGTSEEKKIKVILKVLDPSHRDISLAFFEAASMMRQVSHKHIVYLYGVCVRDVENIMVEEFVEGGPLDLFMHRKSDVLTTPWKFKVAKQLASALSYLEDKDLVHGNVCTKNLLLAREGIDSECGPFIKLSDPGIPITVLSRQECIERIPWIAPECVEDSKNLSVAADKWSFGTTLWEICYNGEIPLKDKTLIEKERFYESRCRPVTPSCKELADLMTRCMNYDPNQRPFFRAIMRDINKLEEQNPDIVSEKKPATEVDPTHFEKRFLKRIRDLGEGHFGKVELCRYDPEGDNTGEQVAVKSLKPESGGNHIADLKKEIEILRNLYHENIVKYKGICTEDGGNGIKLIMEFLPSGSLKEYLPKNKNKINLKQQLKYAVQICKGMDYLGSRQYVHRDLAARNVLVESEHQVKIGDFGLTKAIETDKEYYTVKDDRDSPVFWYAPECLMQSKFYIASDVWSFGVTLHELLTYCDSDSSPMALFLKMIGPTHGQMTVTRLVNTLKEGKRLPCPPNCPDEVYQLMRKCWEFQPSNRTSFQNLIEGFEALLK

| SMILES | IC50 [1] | IC50 [2] | IC50 [3] |
| --- | --- | --- | --- |
| COc1nn(C)cc1Nc1nccc(-c2c[nH]c3c(NC(=O)[C@@H](C)N4CCN(C)C[C@@H]4C)cccc23)n1 | 643 nM |  |  |
| CCOc1nn(C)cc1Nc1ncc(C)c(-c2c[nH]c3c(NC(=O)[C@@H](CC)N4CCN(C)CC4)cccc23)n1 | 104 nM | < 6 nM | > 30000 nM |
| CCOc1nn(C)cc1Nc1ncc(F)c(-c2c[nH]c3c(NC(=O)[C@H](C)N4CCN(C)C[C@@H]4C)cccc23)n1 | > 3000 nM |  |  |

The next compounds have a lower IC50 [1] than those just listed; values first:

| IC50 [1] | IC50 [2] | IC50 [3] | SMILES |
| --- | --- | --- | --- |
| 57.9 nM |  |  | COc1nn(C)cc1Nc1ncc(Cl)c(-c2c[nH]c3c(NC(=O)[C@@H](C)N4CCN(C)CC4)cccc23)n1 |
| 56.6 nM | < 3 nM | > 30000 nM | COC[C@H](C(=O)Nc1cccc2c(-c3nc(Nc4cn(C)nc4C)ncc3F)c[nH]c12)N1CCN(C)CC1 |
| 75.1 nM | < 4 nM | > 30000 nM | CC[C@H](C(=O)Nc1cccc2c(-c3nc(Nc4cn(C)nc4C)ncc3F)c[nH]c12)N1CCN(C)CC1 |
